# Experimental data as given in patent US9944645B2, “Imidazotriazines and imidazopyrimidines as kinase inhibitors” (Incyte Holdings Corporation, priority 2006, dated 2018).
# Target: c-Met kinase (h-Met; histidine-tagged c-Met catalytic domain fusion protein) (Homo sapiens (Human), UniProt P08581)
# Assay: In Vitro c-Met Kinase Enzyme Assays
# Type: biochemical
# Details: phosphorylation of poly Glu-Tyr, 5 μM ATP, 25 minutes at 30° C.
# Experimental: Compounds were screened in vitro for their ability to inhibit c-Met kinase activity. […] Briefly, histidine-tagged c-Met catalytic domain fusion protein (Invitrogen, #PV3143) was used for the assay. […] The reaction lasted for 25 minutes at 30° C. After the reaction was completed, the contents of the plates was discarded. Plates were then washed with TBS-T (250 μL/well, 5×) and then blocked with TBS-T containing 1% BSA for 2 hours. The contents of the plates was discarded, and 100 μL (per well) of peroxidase-labeled anti-phospho-tyrosine antibody (Sigma, #A5964) diluted (1:60,000) in 1% BSA containing TBS-T were then added and incubated for 1 hour. Plates were washed with TBS-T ([…], 5×) and followed by the color reaction using 100 μL (1:1 mixture) of H2O2 and tetramethylbenzidine (R&D Systems, #DY999). The reaction was stopped in minutes with 100 μL of 2 N H2SO4. The optical density was measured immediately using a microplate reader at 450 nm with wavelength correction at 540 nm. IC50 values were calculated with the GraphPad Prism software. The linear range (i.e., the time period over which the rate remained equivalent to the initial rate) was determined for the kinase and IC50 determinations were performed within this range.
# c-Met kinase (h-Met; histidine-tagged c-Met catalytic domain fusion protein), sequence (P08581 1078-1345): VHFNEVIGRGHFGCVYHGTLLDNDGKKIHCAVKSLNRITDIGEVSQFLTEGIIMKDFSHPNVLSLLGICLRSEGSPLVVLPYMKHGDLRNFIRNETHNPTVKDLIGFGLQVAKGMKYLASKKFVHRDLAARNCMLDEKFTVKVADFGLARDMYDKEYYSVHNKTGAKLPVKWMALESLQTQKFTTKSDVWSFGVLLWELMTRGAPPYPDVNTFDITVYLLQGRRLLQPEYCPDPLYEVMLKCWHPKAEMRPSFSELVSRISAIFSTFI
row,SMILES,IC50
1,"N#CC1CCN(C(=O)c2ccc(-c3cnc4ncc(C5(c6ccc7ncccc7c6)CC5)n4c3)cc2)C1 (stereo in doubt) [Example 52, (3R)-1-{4-[3-(1-Quinolin-6-ylcyclopropyl)imidazo[1,2-a]pyrimidin-6-yl]benzoyl}pyrrolidine-3-carbonitrile]",< 500 nM
2,COc1ccc(Cc2cnc3ncc(-c4ccc(F)cc4)nn23)cc1 [Example 1],< 500 nM
3,"COc1ccc(C2(c3cnc4ncc(-c5ccc(F)cc5)nn34)CC2)cc1 [Example 2, 2-(4-Fluorophenyl)-7-[1-(4-methoxyphenyl)cyclopropyl]imidazo[1,2-b]-[1,2,4]-triazine]",< 500 nM
4,"Fc1ccc(-c2cnc3ncc(C4(c5ccc6ncccc6c5)CC4)n3n2)cc1 [Example 3, 6-(1-(2-(4-Fluorophenyl)imidazo[1,2-b][1,2,4]-triazin-7-yl)cyclopropyl)quinoline]",< 500 nM
5,"COc1ccc(Cc2cnc3ncc(-c4ccc(F)cc4)cn23)cc1 [Example 4, 6-(4-Fluorophenyl)-3-(4-methoxybenzyl)imidazo[1,2-a]pyrimidine]",< 500 nM
6,"Fc1ccc(-c2cnc3ncc(C4(c5ccc6ncccc6c5)CC4)n3c2)cc1 [Example 6, 6-(1-(6-(4-Fluorophenyl)imidazo[1,2-a]pyrimidin-3-yl)cyclopropyl)quinoline]",< 500 nM
7,"CNC(=O)c1ccc(-c2cnc3ncc(Sc4ccc(OC)cc4)n3c2)cc1F [Example 9, 2-Fluoro-4-(3-[(4-methoxyphenyl)thio]imidazo[1,2-a]pyrimidin-6-yl)-N-methylbenzamide]",< 500 nM
8,"CNC(=O)c1ccc(-c2cnc3ncc(Sc4ccc5ncccc5c4)n3c2)cc1F [Example 11, 2-Fluoro-N-methyl-4-[3-(quinolin-6-ylthio)imidazo[1,2-a]pyrimidin-6-yl]benzamide]",< 500 nM
9,"COc1ccc(Oc2cnc3ncc(-c4ccc(Br)c(F)c4)nn23)cc1 [Example 14, 2-(4-Bromo-3-fluorophenyl)-7-(4-methoxyphenoxy)imidazo[1,2-b][1,2,4]triazine]",< 500 nM
10,"COc1ccc(Oc2cnc3ncc(-n4cc(C)cn4)cn23)cc1 [Example 15, 3-(4-Methoxyphenoxy)-6-(4-methyl-1H-pyrazol-1-yl)imidazo[1,2-a]pyrimidine]",< 500 nM
11,"CNC(=O)c1ccc(-c2cnc3ncc(C4(c5ccc6ncccc6c5)CC4)n3c2)cc1F [Example 18, 2-Fluoro-N-methyl-4-[3-(1-quinolin-6-ylcyclopropyl)imidazo[1,2-a]pyrimidin-6-yl]benzamide]",< 500 nM
12,"COc1ccc(Sc2cnc3ncc(-c4ccc(F)cc4)nn23)cc1 [Example 20, 2-(4-fluorophenyl)-7-[(4-methoxyphenyl)thio]imidazo[1,2-b][1,2,4]triazine]",< 500 nM
13,"CC(Oc1ccc(-c2cnc3ncc(C4(c5ccc6ncccc6c5)CC4)n3c2)cc1F)C(=O)N1CCCC1 (stereo not shown) [Example 21, 6-(1-{6-[3-Fluoro-4-(1-methyl-2-oxo-2-pyrrolidin-1-ylethoxy)phenyl]imidazo[1,2-a]pyrimidin-3-yl}cyclopropyl)quinoline]",< 500 nM
14,"CN(C)C(=O)c1cnn(-c2cnc3ncc(C4(c5ccc6ncccc6c5)CC4)n3c2)c1 [Example 24, N,N-Dimethyl-1-[3-(1-quinolin-6-ylcyclopropyl)imidazo[1,2-a]pyrimidin-6-yl]-1H-pyrazole-4-carboxamide]",< 500 nM
15,"O=C(NC1CCCCC1)c1cnc2ncc(C3(c4ccc5ncccc5c4)CC3)n2c1 [Example 26, N-Cyclohexyl-3-(1-quinolin-6-ylcyclopropyl)imidazo[1,2-a]pyrimidine-6-carboxamide]",< 500 nM
16,"O=C(NCC1CCCO1)c1cnc2ncc(C3(c4ccc5ncccc5c4)CC3)n2c1 (stereo not shown) [Example 27, 3-(1-Quinolin-6-ylcyclopropyl)-N-(tetrahydrofuran-2-ylmethyl)imidazo[1,2-a]pyrimidine-6-carboxamide]",< 500 nM
17,"O=C(NC1CCC1)c1ccc(-c2cnc3ncc(C4(c5ccc6ncccc6c5)CC4)n3c2)cc1 [Example 28, N-Cyclobutyl-4-[3-(1-quinolin-6-ylcyclopropyl)imidazo[1,2-a]pyrimidin-6-yl]benzamide]",< 500 nM
18,"CN(C)C(=O)c1ccc(-c2cnc3ncc(C4(c5ccc6ncccc6c5)CC4)n3c2)cc1 [Example 30, N,N-Dimethyl-4-[3-(1-quinolin-6-ylcyclopropyl)imidazo[1,2-a]pyrimidin-6-yl]benzamide]",< 500 nM
19,"CC(NC(=O)c1ccc(-c2cnc3ncc(C4(c5ccc6ncccc6c5)CC4)n3c2)cc1)c1ccccn1 (stereo not shown) [Example 34, N-(1-Pyridin-2-ylethyl)-4-[3-(1-quinolin-6-ylcyclopropyl)imidazo[1,2-a]pyrimidin-6-yl]benzamide]",< 500 nM
20,"O=C(c1ccc(-c2cnc3ncc(C4(c5ccc6ncccc6c5)CC4)n3c2)cc1)N1CC[C@H](F)C1 [Example 35, 6-{1-[6-(4-[(3S)-3-Fluoropyrrolidin-1-yl]carbonylphenyl)imidazo[1,2-a]pyrimidin-3-yl]cyclopropyl}quinoline]",< 500 nM
21,"COCC1(NC(=O)c2ccc(-c3cnc4ncc(C5(c6ccc7ncccc7c6)CC5)n4c3)cc2)CCC1 [Example 36, N-[1-(Methoxymethyl)cyclobutyl]-4-[3-(1-quinolin-6-ylcyclopropyl)imidazo[1,2-a]pyrimidin-6-yl]benzamide]",< 500 nM

# Next, values leading:
row,IC50,SMILES
1,< 500 nM,"COC1CCN(C(=O)C(C)NC(=O)c2ccc(-c3cnc4ncc(C5(c6ccc7ncccc7c6)CC5)n4c3)cc2F)C1 (single isomer, unassigned) [Example 201]"
2,< 500 nM,"COc1ccc(C2(c3cnc4ncc(-c5ccc(F)cc5)cn34)CC2)cc1 [Example 5, 6-(4-Fluorophenyl)-3-(1-(4-methoxyphenyl)cyclopropyl)imidazo[1,2-a]pyrimidine]"
3,< 500 nM,"COc1ccc(Sc2cnc3ncc(-c4ccc(Br)c(F)c4)nn23)cc1 [Example 8, 2-(4-Bromo-3-fluorophenyl)-7-[(4-methoxyphenyl)thio]imidazo[1,2-b][1,2,4]triazine]"
4,< 500 nM,"CNC(=O)c1ccc(-c2cnc3ncc(Sc4ccc(OC)cc4)n3c2)cc1Cl [Example 10, 2-chloro-4-3-[(4-methoxyphenyl)thio]imidazo[1,2-a]pyrimidin-6-yl-N-methylbenzamide]"
5,< 500 nM,"CNC(=O)c1ccc(-c2cnc3ncc(Sc4ccc5ncccc5c4)n3c2)cc1Cl [Example 12, 2-chloro-N-methyl-4-[3-(quinolin-6-ylthio)imidazo[1,2-a]pyrimidin-6-yl]benzamide]"
6,< 500 nM,"COC(=O)c1ccc(-c2cnc3ncc(Sc4ccc5ncccc5c4)n3n2)cc1F [Example 13, Methyl 2-fluoro-4-[7-(quinolin-6-ylthio)imidazo[1,2-b][1,2,3]triazin-2-yl]benzoate]"
7,< 3000 nM,"COc1ccc(Oc2cnc3ncc(-c4ccc(Br)cc4)cn23)cc1 [Example 16, 6-(4-Bromophenyl)-3-(4-methoxyphenoxy)imidazo[1,2-a]pyrimidine]"
8,< 500 nM,"CNC(=O)c1ccc(-c2cnc3ncc(Oc4ccc5ncccc5c4)n3c2)cc1Cl [Example 17, 2-chloro-N-methyl-4-[3-(quinolin-6-yloxy)imidazo[1,2-a]pyrimidin-6-yl]benzamide]"
9,< 500 nM,"COc1ccc(Sc2cnc3ncc(-c4ccc(Br)cc4)cn23)cc1 [Example 19, 6-(4-bromophenyl)-3-[(4-methoxyphenyl)thio]imidazo[1,2-a]pyrimidine]"
10,< 500 nM,"c1cnc2ccc(C3(c4cnc5ncc(-n6cccn6)cn45)CC3)cc2c1 [Example 22, 6-{1-[6-(1H-Pyrazol-1-yl)imidazo[1,2-a]pyrimidin-3-yl]cyclopropyl}quinoline]"
11,< 500 nM,"Cc1cnn(-c2cnc3ncc(C4(c5ccc6ncccc6c5)CC4)n3c2)c1 [Example 23, 6-{1-[6-(4-Methyl-1H-pyrazol-1-yl)imidazo[1,2-a]pyrimidin-3-yl]cyclopropyl}quinoline]"
12,< 500 nM,"Cc1csc(C(C)NC(=O)c2cnn(-c3cnc4ncc(C5(c6ccc7ncccc7c6)CC5)n4c3)c2)n1 (stereo not shown) [Example 25, N-[1-(4-Methyl-1,3-thiazol-2-yl)ethyl]-1-[3-(1-quinolin-6-ylcyclopropyl)imidazo[1,2-a]pyrimidin-6-yl]-1H-pyrazole-4-carboxamide]"
13,< 500 nM,"O=C(c1ccc(-c2cnc3ncc(C4(c5ccc6ncccc6c5)CC4)n3c2)cc1)N1CCC1 [Example 29, 6-(1-{6-[4-(Azetidin-1-ylcarbonyl)phenyl]imidazo[1,2-a]pyrimidin-3-yl}cyclopropyl)quinoline]"
14,< 500 nM,"O=C(NCC1CCCO1)c1ccc(-c2cnc3ncc(C4(c5ccc6ncccc6c5)CC4)n3c2)cc1 (stereo not shown) [Example 31, 4-[3-(1-Quinolin-6-ylcyclopropyl)imidazo[1,2-a]pyrimidin-6-yl]-N-(tetrahydrofuran-2-ylmethyl)benzamide]"
15,< 500 nM,"CN(C(=O)c1ccc(-c2cnc3ncc(C4(c5ccc6ncccc6c5)CC4)n3c2)cc1)C1CCN(Cc2ccccc2)C1 (stereo not shown) [Example 32, N-(1-Benzylpyrrolidin-3-yl)-N-methyl-4-[3-(1-quinolin-6-ylcyclopropyl)imidazo[1,2-a]pyrimidin-6-yl]benzamide]"
16,< 500 nM,"O=C(NC1CCN(c2ccccn2)CC1)c1ccc(-c2cnc3ncc(C4(c5ccc6ncccc6c5)CC4)n3c2)cc1 [Example 33, N-(1-Pyridin-2-ylpiperidin-4-yl)-4-[3-(1-quinolin-6-ylcyclopropyl)imidazo[1,2-a]pyrimidin-6-yl]benzamide]"
